From US5378803A, “Azole-fused peptides and processes for preparation thereof” (Sterling Winthrop Inc., priority 1992, dated 1995)
Residues, ends and D or L forms follow the SMILES beside them.

Each compound was assayed against T1, Substance P (Cavia porcellus, UniProt P30547) (assay: Guinea pig ileum test for Substance P antagonist effect). Settings: isolated guinea pig ileum longitudinal muscle strips; Schild plot analysis; 5-10 min contact time; footnote a = limited data due to solubility, b = slope significantly different from -1; read-out: Substance P Antagonist pA2 (converted).
T1 construct: Strips of longitudinal muscle (derived from terminal ileum of adult male guinea pigs); from tissue; host or cells: longitudinal muscle strips of terminal ileum, adult male guinea pigs (Charles River)
T1 sequence (P30547 whole entry): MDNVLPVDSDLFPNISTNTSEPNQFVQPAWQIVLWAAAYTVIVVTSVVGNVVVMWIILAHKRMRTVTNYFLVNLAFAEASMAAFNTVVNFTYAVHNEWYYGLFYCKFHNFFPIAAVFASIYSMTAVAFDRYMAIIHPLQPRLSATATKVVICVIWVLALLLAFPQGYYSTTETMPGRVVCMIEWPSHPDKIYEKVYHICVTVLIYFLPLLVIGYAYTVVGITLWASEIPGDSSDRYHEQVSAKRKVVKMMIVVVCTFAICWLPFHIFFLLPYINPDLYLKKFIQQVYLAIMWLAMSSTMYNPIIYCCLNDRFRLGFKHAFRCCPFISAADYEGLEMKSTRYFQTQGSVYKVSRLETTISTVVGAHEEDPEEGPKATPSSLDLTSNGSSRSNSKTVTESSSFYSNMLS
Format: cell-based
Description: As stated above the azole-fused peptides of Formula I are useful as Substance P antagonists and analgesics or as synthetic intermediates therefor.
Strips of longitudinal muscle (derived from terminal ileum of adult male guinea pigs (Charles River, 400-600 g.) are mounted in 5-ml. organ baths containing oxygenated Krebs solution containing l μM each of atropine and pyrilamine maintained at 30°-33° C. and connected to isometric transducers. Following tissue equilibration and repeated washing (45-60 min.), SP or an appropriate reference agonist is added cumulatively to the bath and contractions of the tissue are recorded. The bath is washed thoroughly and 30-45 min. is allowed to elapse before construction of a second reference agonist curve to assure reproducibility of the responses. Test compounds are similarly evaluated for agonist activity up to a maximum concentration of 10-100 μM. Regression analysis of the linear portion of the log concentration-percent maximal response curves provides the EC50 (and 95% confidence limits), the standard measure of agonist potency. When appropriate, relative molar potency ratios are calculated (EC50 reference/ED50 test drug). Antagonist activity is examined by pretreating thoroughly washed tissues with test compound (using a standard 5-10 min. contact time), then constructing a cumulative dose-response curve to the reference agonist. The effects of several concentrations of test antagonist, pooled across separate experiments, provide dose-ratio (EC50 shift) data for a standard Schild plot analysis, with computation of the pA2.

For `CC(C)C[C@H](NC(=O)[C@@H](Cc1c[nH]c2ccccc12)NC(=O)c1nc(C2Cc3c([nH]c4ccccc34)CN2)sc1-c1ccccc1)C(=O)N[C@@H](Cc1ccccc1)C(N)=O` (single isomer, unassigned) [Example 7], which Kb is on record?
Its Kb is over 10000 nM.

How did the Kb turn out when `CC(C)C[C@H](NC(=O)[C@@H](Cc1c[nH]c2ccccc12)NC(=O)c1nc(C2Cc3c([nH]c4ccccc34)CN2)sc1-c1ccccc1)C(=O)N[C@@H](Cc1ccccc1)C(N)=O` (single isomer, unassigned) [Example 8] was run?
Its Kb is 7940 nM.

For `CN(C)CCNC(=O)[C@@H](Cc1c[nH]c2ccccc12)NC(=O)c1nc(C(Cc2c[nH]c3ccccc23)NC(=O)[C@@H]2CCCN2)sc1-c1ccccc1` (single isomer, unassigned) [Example 11], which Kb is on record?
The Kb was 7940 nM.

How did the Kb turn out when `CN(C)CCNC(=O)[C@@H](Cc1c[nH]c2ccccc12)NC(=O)c1nc(C(Cc2c[nH]c3ccccc23)NC(=O)[C@@H]2CCCN2)sc1-c1ccccc1` (single isomer, unassigned) [Example 12] was run?
Its Kb is 5010 nM.

How did the Kb turn out when `CC(C)C[C@H](NC(=O)[C@@H](Cc1c[nH]c2ccccc12)NC(=O)c1nc([C@H](Cc2c[nH]c3ccccc23)NC(=O)[C@@H]2CCCN2)sc1-c1ccccc1)C(=O)N[C@@H](Cc1ccccc1)C(N)=O` [Example 2] was run?
The Kb was 126 nM.

Which Kb does the source give for `CC(C)C[C@H](NC(=O)[C@@H](Cc1c[nH]c2ccccc12)NC(=O)c1nc([C@@H](Cc2c[nH]c3ccccc23)NC(=O)[C@@H]2CCCN2)sc1-c1ccccc1)C(=O)N[C@@H](Cc1ccccc1)C(N)=O` [Example 3] here?
Its Kb is 50.1 nM.

With `CC(C)c1sc([C@@H](Cc2c[nH]c3ccccc23)NC(=O)[C@H](Cc2ccccc2)NC(=O)[C@@H](Cc2c[nH]c3ccccc23)NC(=O)[C@@H]2CCCN2)nc1C(=O)N[C@@H](Cc1ccccc1)C(N)=O` [Example 4] (HELM PEPTIDE1{P.[dW].F.[CC(C)c1sc([C@@H](Cc2c[nH]c3ccccc23)N[*:1])nc1C(=O)[*:2]].F.[am]}$$$$V2.0) as the compound, how does the Kb read?
The Kb was 501 nM.

For `CC(C)c1sc([C@H](Cc2c[nH]c3ccccc23)NC(=O)[C@H](Cc2ccccc2)NC(=O)[C@@H](Cc2c[nH]c3ccccc23)NC(=O)[C@@H]2CCCN2)nc1C(=O)N[C@@H](Cc1ccccc1)C(N)=O` [Example 5] (HELM PEPTIDE1{P.[dW].F.[CC(C)c1sc([C@H](Cc2c[nH]c3ccccc23)N[*:1])nc1C(=O)[*:2]].F.[am]}$$$$V2.0), which Kb is on record?
Its Kb is 126 nM.

Which Kb does the source give for `CC(C)C[C@H](NC(=O)c1nc([C@H](Cc2ccccc2)NC(=O)[C@@H](Cc2c[nH]c3ccccc23)NC(=O)[C@@H]2CCCN2)sc1-c1c[nH]c2ccccc12)C(=O)N[C@@H](Cc1ccccc1)C(N)=O` [Example 6] here?
The Kb was 1260 nM.

`CC(C)C[C@H](NC(=O)c1nc([C@H](Cc2ccccc2)NC(=O)[C@@H](Cc2c[nH]c3ccccc23)NC(=O)[C@@H]2CCCN2)oc1-c1c[nH]c2ccccc12)C(=O)N[C@@H](Cc1ccccc1)C(N)=O` [Example 9] was tested. Which Kb did it give?
The Kb was 5010 nM.

How did the Kb turn out when `CC(C)C[C@H](NC(=O)c1nc([C@H](Cc2ccccc2)NC(=O)[C@@H](Cc2c[nH]c3ccccc23)NC(=O)[C@@H]2CCCN2)[nH]c1-c1c[nH]c2ccccc12)C(=O)N[C@@H](Cc1ccccc1)C(N)=O` [Example 10] was run?
Its Kb is 1260 nM.

Which Kb does the source give for `CC(C)C[C@H](NC(=O)[C@@H](Cc1c[nH]c2ccccc12)NC(=O)c1nc([C@@H](Cc2c[nH]c3ccccc23)NC(=O)[C@@H]2CCCN2)[nH]c1-c1ccccc1)C(=O)N[C@@H](Cc1ccccc1)C(N)=O` [Example 16] here?
The Kb was 200 nM.

With `CC(C)C[C@H](NC(=O)[C@@H](Cc1c[nH]c2ccccc12)NC(=O)[C@H](Cc1ccccc1)NC(=O)[C@@H](Cc1c[nH]c2ccccc12)NC(=O)[C@@H]1CCCN1)c1ncc(-c2ccccc2)[nH]1` [Example 17] (HELM PEPTIDE1{P.[dW].F.[dW].[CC(C)C[C@H](N[*:1])c1ncc(-c2ccccc2)[nH]1]}$$$$V2.0) as the compound, how does the Kb read?
Its Kb is 501 nM.

`CC(C)C[C@H](NC(=O)[C@@H](Cc1c[nH]c2ccccc12)NC(=O)c1nc([C@@H](Cc2c[nH]c3ccccc23)NC(=O)[C@@H]2CCCN2)sc1-c1ccccc1)C(=O)N[C@@H](Cc1ccccc1)C(=O)O` [Example 18] was tested. Which Kb did it give?
Its Kb is 316 nM.

How did the Kb turn out when `CC(C)C[C@H](NC(=O)[C@@H](Cc1c[nH]c2ccccc12)NC(=O)c1nc([C@@H](Cc2c[nH]c3ccccc23)NC(=O)[C@@H]2CCCN2)sc1-c1ccccc1)C(=O)O` [Example 19] was run?
The Kb was over 10000 nM.

With `CC(C)C[C@H](NC(=O)[C@@H](Cc1c[nH]c2ccccc12)NC(=O)c1nc([C@H](N)Cc2c[nH]c3ccccc23)sc1-c1ccccc1)C(=O)O` [Example 20] as the compound, how does the Kb read?
The Kb was over 10000 nM.

With `CC(C)c1sc([C@@H](Cc2c[nH]c3ccccc23)NC(=O)c2nc([C@@H](Cc3c[nH]c4ccccc34)NC(=O)[C@@H]3CCCN3)sc2-c2ccccc2)nc1C(=O)NC[C@@H](N)Cc1ccccc1` [Example 21] as the compound, how does the Kb read?
The Kb was over 10000 nM.

How did the Kb turn out when `CC(C)C[C@H](NC(=O)[C@@H](Cc1c[nH]c2ccccc12)NC(=O)c1nc([C@@H](Cc2c[nH]c3ccccc23)NC(=O)[C@@H]2CCCN2)sc1-c1ccccc1)C(=O)N(C)C(Cc1ccccc1)C(N)=O` (stereo partly drawn) [Example 22] was run?
Its Kb is 79.4 nM.

With `CC(C)C[C@H](NC(=O)[C@@H](Cc1c[nH]c2ccccc12)NC(=O)c1nc([C@@H](Cc2c[nH]c3ccccc23)NC(=O)[C@@H]2CCCN2)oc1-c1ccccc1)C(=O)N[C@@H](Cc1ccccc1)C(N)=O` [Example 24] as the compound, how does the Kb read?
Its Kb is 631 nM.

`CC(C)c1sc([C@@H](Cc2c[nH]c3ccccc23)NC(=O)[C@H](Cc2ccccc2)NC(=O)[C@@H](Cc2c[nH]c3ccccc23)NC(=O)[C@@H]2CCCN2)nc1C(=O)NC[C@@H](N)Cc1ccccc1` [Example 25] was tested. Which Kb did it give?
Its Kb is 794 nM.

With `CC(C)c1sc([C@@H](Cc2c[nH]c3ccccc23)NC(=O)[C@H](Cc2ccccc2)NC(=O)[C@@H](Cc2c[nH]c3ccccc23)NC(=O)[C@@H]2CCCN2)nc1CN(C)CCc1ccccc1` [Example 27] as the compound, how does the Kb read?
The Kb was at least 10000 nM.
